Measurements reported in patent US8575188B2 (priority 2009, dated 2013).
Read-outs that look alike come from different tables or passages of the source.

Columns and labels:
[1] = system: BCRP, which over expressed the breast cancer resistance protein; test: Efflux pump drug resistance, antiproliferation assay, BCRP over expressing line
Description: (§1) The compounds were screened for cytotoxicity using human non small cell lung cancer cell line H460. […]
(§2) Cellular drug resistance was determined using the antiproliferation assay described above.

[2] = Brain penetration, AUC in brain versus AUC plasma; conditions: mouse
Description: Certain compounds of the invention were assessed for brain penetration by comparing the AUC for plasma exposure versus the AUC in brain.

[3] = system: Messa ovarian carcinoma cell line; test: Efflux pump drug resistance, antiproliferation assay, parent line; format: cell-based; conditions: air
Description: […] Cells were treated with test compounds at various concentrations under air for 72 hrs, and then cell viability and proliferation were assessed by Alamar Blue staining.
as §2

[4] = system: pcDNA; test: as above; format: cell-based; conditions: air
Description: as §1, §2

[5] = system: H69 small cell lung cancer line; test: as above; format: cell-based; conditions: air
Description: as §1, §2

[6] = system: human non small cell lung cancer cell line H460; test: Antiproliferation (cytotoxicity) assay, 72 hrs under air, Alamar Blue; format: cell-based; conditions: read-out: IC50
[7] = system: DX5, which over expresses the MDR 1 efflux pump; test: Efflux pump drug resistance, antiproliferation assay, MDR 1 over expressing line; format: cell-based; conditions: air
Description: as §1, §2

[8] = system: mouse melanoma cell line B-16-F10; test: Antiproliferation assay, 72 hrs under air, Alamar Blue; format: cell-based; conditions: B16-F10
[9] = system: human prostate cancer cell line PC-3; test: as above; format: cell-based; conditions: read-out: PC3 IC50
[10] = In vivo pharmacokinetics, oral gavage; conditions: CD, mouse, in vivo, po; for AUC / Cmax: 50 mg/kg
Description: The data normalized to a 50 mg/kg dose are shown below (compounds were dosed at either 25 or 50 mg/kg).

[11] = system: MRP1 over expressing H69AR line; test: Efflux pump drug resistance, antiproliferation assay, MRP1 over expressing line; format: cell-based; conditions: Homo sapiens, air
Description: as §1, §2

[12] = system: H46O cells; test: Selective hypoxic activation of 14-nitro prodrugs in cell culture; format: cell-based, human; conditions: TH1431 at 1 micromolar, 24 hr
Description: H46O cells were grown to a confluent monolayer and then the 14-nitro TH1332 prodrug was added to the media at 5 micromolar concentration. Incubations were done for 24 hour either under air or nitrogen (hypoxia), media and cells were recovered, sonicated and soluble extracts were isolated by acetonitrile precipitation of proteins. The level of amino TH1338 active cytotoxin were quantitated by liquid chromotagraphy mass spectra analysis. The equivalent of 70 nanomolar TH1338 was produced under hypoxia with undetectable levels being produced under air (less than 5 nanomolar).
The analogous experiment was preformed using 1 micromolar concentration of the 14-nitro derivative TH1431. After 24 hr, 180 nanomolar of the 14 amino TH1499 was produced under nitrogen with undetectable levels produced under air (less than 5 nanomolar).

[13] = system: human colon cancer HT-29; test: Xenograft model, subcutaneous, tumor growth inhibition and body weight loss; conditions: for Max. BWL (%): mouse, in vivo, po
Method in brief: (§3)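 Cells implanted subcutaneously in the flank; at ~150 mm^3 tumors, mice randomized to groups of 10, with a vehicle-only arm. TGI=(1−T/C)%, T/C=(Tn−Ti)/(Cn−Ci), Day n being the last measurement before any vehicle animal was euthanized; euthanasia above 2000 mm^3.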

[14] = system: human colon cancer cell line HT-29; test: Antiproliferation assay, 72 hrs under air, Alamar Blue; format: cell-based
[15] = system: human melanoma cell line A375; test: as above; format: cell-based
[16] = system: bone marrow progenitor cells; test: Bone marrow progenitor cell clonogenic assay (CFU-GM), human; conditions: read-out: Human CFU-GM (IC50 nM) THLD
Description: (§4) A clonogenic assay was performed using bone marrow progenitor cells derived from the blood of mice and humans.

[17] = stated as known for topotecan; cited from earlier work
[18] = system: human prostate cancer cell line LNCap; test: Antiproliferation assay, 72 hrs under air, Alamar Blue; format: cell-based
[19] = system: human prostate cancer cell line DU145; test: as above; format: cell-based
[20] = system: human ovarian cancer cell line IGROV-1; test: as above; format: cell-based
[21] = system: human melanoma cell line SKMEL-28; test: as above; format: cell-based
[22] = system: IGROV1 human ovarian cancer cells; test: Xenograft model of metastatic ovarian cancer (i.p.), survival
Description: One arm was dosed with only vehicle and the results used for the efficacy calculations. […] A xenograft model of metastatic ovarian cancer was set up by the intraperitoneal (i.p) injection of 3×10^6 IGROV1 human ovarian cancer cells in nude mice. Mice were evaluated twice a week for morbidity and mortality. Kaplan-Meier survival curves were plotted.

[23] = system: bone marrow progenitor cells; test: Bone marrow progenitor cell clonogenic assay (CFU-GM), mouse; conditions: read-out: Mouse CFU-GM (IC50 nM) THLD
Description: as §4

[24] = system: human melanoma cell line MAMLE-3M; test: Antiproliferation assay, 72 hrs under air, Alamar Blue; format: cell-based
[25] = system: human prostate cancer PC-3; test: Xenograft model, subcutaneous, tumor growth inhibition and body weight loss
Method in brief: as §3

[26] = system: human non small cell lung cancer H-460; test: as above
Method in brief: as §3

[27] = system: human melanoma cell line SKMEL2; test: Antiproliferation assay, 72 hrs under air, Alamar Blue; format: cell-based
[28] = Bone marrow progenitor cell clonogenic assay (CFU-GM), human; conditions: human
Description: as §4

[29] = Oral bioavailability; conditions: rat, in vivo, Sprague-Dawley rats
Text: Rats are often a useful species for predicting oral bioavailablity in humans.

[30] = Bone marrow progenitor cell clonogenic assay (CFU-GM), mouse; conditions: mouse
Description: as §4

[31] = Homo sapiens, MES-SA, 72 h, 3 days, read-out: Air 3d MESSA prol. IC50
[32] = 72 h, 3 days, read-out: Air 3d pcDNA prol. IC50
[33] = 72 h, 3 days, read-out: Air 3d H69 prol. IC50
[34] = Homo sapiens, NCI-H460, H460, inhibition of proliferation, 72 hrs under air
[35] = 72 h, 3 days, read-out: Air 3d H69ar (MRP1) prol. IC50
[36] = Homo sapiens, HT-29, read-out: HT29 IC50
[37] = PC3, PO, QD × 5/wk, 2 weeks, 2 mg/Kg
[38] = HT29, PO, QD × 5/wk, 4 weeks, 2 mg/Kg
[39] = H460, PO, QD × 5/wk, 2 weeks, 2 mg/Kg

CC[C@@]1(O)C(=O)OCc2c1c([N+](=O)[O-])c1n(c2=O)Cc2c-1nc1ccccc1c2/C=N/OC(C)(C)C [TH1431]
IC50 ([1]; 120 h, read-out: Air 5d BCRP prol. IC50 nM, air, 5 days): 78 nM | 5d BCRP/pcDNA ([1]; ratio of IC50s, BCRP over expressing versus parent line, 5 days): 1.1642 | Kp [2]: 0.12 | IC50 [3, 31]: 2690 nM | IC50 ([3]; Homo sapiens, MES-SA, 120 h, 5 days, read-out: Air 5d MESSA prol. IC50): 255 nM | IC50 ([3]; 3 days, read-out: Air 3d MESSA prol. IC50): 3300 nM | IC50 [4, 32]: 461 nM | IC50 ([4]; 120 h, 5 days, read-out: Air 5d pcDNA prol. IC50): 67 nM | IC50 ([4]; 3 days, read-out: Air 3d pcDNA prol. IC50): 900 nM | IC50 [5, 33]: 3790 nM | IC50 ([5]; 120 h, 5 days, read-out: Air 5d H69 prol. IC50): 354 nM | IC50 [6, 34]: 800 nM | IC50 ([7]; MDR1, 120 h, 5 days, read-out: Air 5d DX5 prol. IC50): 515 nM | IC50 [8]: 720 nM | IC50 ([9]; Homo sapiens): 29 nM | AUC [10]: 352 ng·h/mL | Cmax [10]: 348 ng/mL | IC50 [11, 35]: > 10000 nM | IC50 ([11]; 120 h, 5 days, read-out: Air 5d H69ar (MRP1) prol. IC50): 838 nM | TH1499 produced under air ([12]; air, undetectable levels): less than 5 nanomolar | 14 amino TH1499 produced under nitrogen ([12]; nitrogen): 180 nM | TGI (%) ([13]; HT29, PO, QD × 5/wk, 2 weeks, 25 mg/Kg): 34.6% | Max. BWL (%) ([13]; 25 mg/kg): 1.6% | IC50 [14, 36]: 288 nM

CC[C@@]1(O)C(=O)OCc2c1cc1n(c2=O)Cc2cc3c(CN(C)C)c(O)ccc3nc2-1 [Topotecan, reference compound]
IC50 [15]: 13 nM | IC50 [16]: 8 nM | brain levels in mice relative to plasma levels [17]: about 30% | ratio BCRP over expressing line versus the parent cell line ([1]; not told): 51 | IC50 [18]: 9 nM | IC50 [19]: 30 nM | IC50 [20]: 160 nM | IC50 [21]: > 10000 nM | IC50 [6]: 45 nM | T/C ([22]; mouse, in vivo, 2 mg/kg): 186 | IC50 [9]: 45 nM | IC50 [23]: 130 nM | IC50 [24]: 1000 nM | Max BWL (%) [25, 37]: 1.3% | TGI (%) [25, 37]: 79% | Max BWL (%) [13, 38]: 0% | TGI (%) [13, 38]: 70.3% | Max BWL (%) [26, 39]: 8.9% | TGI (%) [26, 39]: 46.1% | IC50 ([14]; read-out: HT29 IC50): > 1000 nM | IC50 ([27]; read-out: SKMEL-2 IC50): 140 nM

CCc1c2c(nc3ccccc13)-c1c(N)c3c(c(=O)n1C2)COC(=O)[C@]3(O)CC [TH1338]
IC50 ([15]; Homo sapiens, A-375): 7 nM | IC90 [28]: 650 nM | IC50 ([16]; Homo sapiens, CFU-GM): 100 nM | IC50 ([1]; 72 h, read-out: Air 3d BCRP prol. IC50 nM, air, 3 days): 4.9 nM | 3d BCRP/pcDNA ([1]; ratio of IC50s, BCRP over expressing versus parent line, 3 days): 1.1395 | Kp [2]: 0.7 | IC50 ([18]; Homo sapiens, LNCaP): 120 nM | IC50 ([19]; Homo sapiens, DU-145): 18 nM | IC50 ([20]; Homo sapiens, IGROV-1): 20 nM | IC50 ([21]; Homo sapiens, SK-MEL-28): > 10000 nM | IC50 [3, 31]: 4.3 nM | IC50 [4, 32]: 4.3 nM | IC50 [5, 33]: 110 nM | IC50 [6, 34]: 7.2 nM | T/C ([22]; IGROV1 i.p., median survival treated / vehicle times 100, PO, QD × 5/wk, 4 weeks, 40 mg/Kg): 221 | bioavailability [29]: 88.9% | IC50 ([7]; MDR1, 72 h, 3 days, read-out: Air 3d DX5 prol. IC50): 12 nM | IC50 ([9]; Homo sapiens): 24 nM | half-life [10]: 4.17 h | AUC [10]: 1070 ng·h/mL | Cmax [10]: 250 ng/mL | IC50 [11, 35]: 240 nM | IC90 [30]: 4500 nM | IC50 ([23]; Mus musculus, CFU-GM): 620 nM | IC50 ([24]; Homo sapiens): 1200 nM | TGI (%) ([25]; PC3, PO, QD × 5/wk, 2 weeks, 40 mg/Kg): 107% | Max. BWL (%) ([25]; mouse, in vivo, po, 40 mg/kg): 7% | TGI (%) ([13]; HT29, PO, QD × 5/wk, 4 weeks, 40 mg/Kg): 100.7% | Max. BWL (%) ([13]; 40 mg/kg): 2.9% | TGI (%) ([26]; H460, PO, QD × 5/wk, 2 weeks, 40 mg/Kg): 84.3% | Max. BWL (%) ([26]; mouse, in vivo, po, 40 mg/kg): 1.5% | IC50 [14, 36]: 302 nM | IC50 ([27]; Homo sapiens, SK-MEL-2, read-out: SKMEL-2 IC50): 130 nM
